Experiments:
IL-10 = test: RT-PCR gene expression in stimulated PBMCs: IL-10; type: cell-based, human; conditions: 10 μg/mL
Procedure: (§1) Quantitative real time PCR was used to detect the epsilon germline transcription. Human PBMC cells (1.5×10^6 cells/mL) were co-incubated with DMF-C1 compound (10 μg/mL) at 37° C. under 5% CO2 for 4 days. Cells were then harvested and total RNA was isolated using Trizol reagent (Gibco BRL, Rockville, Md.) following the manufacturer's instructions. The RNA concentrations were then quantified by triplicate optical density (OD) readings (Bio-Rad SmartSpect 3000; Bio-Rad, Hercules, Calif.). The reverse transcription was performed to get the cDNA using ImProm-II™ Reverse Transcriptase (Promega Corporation, Madison, Wis.) as described by the manufacturer's instructions. The RT-PCR amplification was performed using Maxima™ SYBR Green qPCR Master Mix (2×) kit (Fisher Scientific, Pittsburgh, Pa.) with epsilon germline primers or GAPDH primers. The primer sequences were listed as εGLT forward: 5′-[…]-3′; εGLT reverse: 5′-[…]-3′; GAPDH-forward: 5′-[…]-3′; GAPDH-reverse: 5′-[…]-3′; STAT3-forward: 5′-[…]-3′; STAT3-reverse: 5′-[…]-3′; T-bet-forward: 5′-[…]-3′; T-bet-reverse: 5′-[…]-3′; IFN-γ-forward: 5′-[…]-3′; IFN-γ-reverse: 5′-[…]-3′; IL-10-forward: 5′-[…]-3′; IL-10-reverse: 5′-[…]-3′. IL-5-forward. 5′-[…] TGCA-3′; IL-5-reverse: 5′-[…]-3′. All primers were synthesized by Sigma-Aldrich Corporation (St. Louis, Mo.).

T-bet = test: RT-PCR gene expression in stimulated PBMCs: T-bet; type: cell-based, human; conditions: 10 μg/mL
Procedure: as §1

CACO-2 cells = test: Berberine uptake by Caco-2 cells, LC-MS; type: in vitro ADME; conditions: 50 μg/mL berberine, 1 hour
Procedure: Experiments were performed on 24 well plates for berberine uptake assay. CACO-2 cells were seeded in each well at the concentration of 1×10^5 cells/well. Cells were then allowed to grow to confluence and differentiation for 2 weeks in culture medium (DMEM+10% FBS, high glucose and sodium pyruvate and supplemented with 1% Essential Amino Acids). On the experiment day, cells were washed three times with pre-warmed HBSS and incubated with 1 ml warm HBSS for 30 minutes.
After conditioning with HBSS, cells were incubated at 37° C. with 50 μg/mL berberine with or without 250 μg/mL of nine different herbal medicines, fruits of Prunus mume (P. mume), skin of the fruits of Zanthoxylum schinifolium (Z. schinifolium), roots of Angelica sinensis (A. sinensis), rhizome of Zingiber officinalis (Z. officinalis), twigs of Cinnamomum cassia (C. cassia), bark of Phellodendron chinensis (P. chinensis), rhizome of Coptis chinensis (C. chinensis), roots of Panax ginseng (P. ginseng) and fruiting body of Ganoderma lucidum (G. lucidum). Control wells received 0, 50, 100 and 200 μg of berberine alone.
After 1 hour, cells were washed 3 times with ice-cold HBSS and scraped in 500 μl of ice cold HBSS and centrifuged. […] 75 μL of each sample was analyzed for its berberine concentration by using LC-MS. […]
All samples were analyzed using waters LC-MS system (Waters corp. MA) for berberine detection. […]

GATA-3 = test: RT-PCR gene expression in stimulated PBMCs: GATA-3; type: cell-based, human; conditions: 10 μg/mL
Procedure: as §1

[1] = In vivo pharmacokinetics study of berberine bioavailability, serum LC-MS; conditions: C3H/HeJ, mouse, oral berberine 2 mg, with or without Angelica sinensis 10 mg, 1 hr after administration, read-out: Concentration of berberine in serum from mice
Procedure: C3H/Hej mice were purchased from Jackson laboratory (Bar Harbor, Me.) and maintained in the animal facility at Mount Sinai School of Medicine^(39). Standard guidelines for the care and use of animals were followed (Institute of Laboratory Animal Resources Commission of Life Sciences, 1996). In order to study the bioavailability, C3H/Hej mice were randomly separated into two groups. Mice were fasted for 12 h before the oral administration of berberine (2 mg) or berberine (2 mg)+Angelica sinensis (10 mg). Blood samples (100 μl) were collected from the facial vein at 1 hr after the administration. The serum of each blood sample was prepared and stored at −80° C. for further analysis. For in vivo study of berberine bioavailability, 50 μL of each serum sample was mixed with 400 μL of acetonitrile and vortexed thoroughly. The mixture was then centrifuged at 1000 rpm for 15 mins. The supernatant was dried under vacuum and resuspended into 50 μL of acetonitrile. All samples were analyzed using waters LC-MS system (Waters corp. MA) for berberine detection. Molecular weight was identified by LC-MS/TOF analysis in elctrospray (ESI) positive mode. The LCT premier TOF mass spectrometer (Waters Corporation, Milford, Mass.) was coupled to Waters Alliance 2695 HPLC system. […]. The mass range was from m/z 50 to 1000 in W optics mode. […]

- Concentration of berberine in Cacao-2 cells, berberine standard alone (CACO-2 cells): 2950 ng/mL
- concentration at 1 h [1]: 280 ng/mL
SMILES: COc1ccc2cc3[n+](cc2c1OC)CCc1cc2c(cc1-3)OCO2 [berberine]
- mRNA level of IL-10 (IL-10): trend of increase
- mRNA expression of T-bet (T-bet): significantly increased
- GATA-3 expression (GATA-3): No significant change

From US10500169B2, “Supression of IgE production by compounds derived from traditional chinese medicine” (Sean N. Parker Foundation, priority 2014, dated 2019)
